Experimental data reported in patent US4684664A, “Derivatives of β-(4-isocyano-1,2,3,4-diepoxycyclopentyl) acrylic acid” (Kureha Kagaku Kogyo Kabushiki Kaisha, priority 1984, dated 1987).
Values after ≈ are worked out from the molar mass of the structure shown.

What was measured:
Type in all cases: cell-based
[1] = tested on: Salmonella typhimurium IID 971; assay: Antibacterial activity, agar-dilution MIC, organism No. 8; details: Salmonella enterica; Organism No. 8, bouillon-agar; read-out: Minimum Inhibitory Concentration
Procedure, shortened: (§1)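 Agar dilution, bouillon-agar plates; MIC reported in μg/ml of medium.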

[2] = tested on: Serratia marcescens IAM 1184; assay: Antibacterial activity, agar-dilution MIC, organism No. 13; details: Serratia marcescens, IAM1184; Organism No. 13, bouillon-agar; read-out: Minimum Inhibitory Concentration
Procedure, shortened: as §1

[3] = tested on: Streptococcus pyogenes IFO 3340; assay: Antibacterial activity, agar-dilution MIC, organism No. 26; details: Streptococcus pyogenes, IFO3340; Organism No. 26, bouillon-agar; read-out: Minimum Inhibitory Concentration
Procedure, shortened: as §1

[4] = tested on: Micrococcus luteus ATCC 9341; assay: Antibacterial activity, agar-dilution MIC, organism No. 25; details: Micrococcus luteus, ATCC9341; Organism No. 25, bouillon-agar; read-out: Minimum Inhibitory Concentration
Procedure, shortened: as §1

[5] = tested on: Proteus rettgeri IFO 3850; assay: Antibacterial activity, agar-dilution MIC, organism No. 22; details: Providencia rettgeri, IFO3850; Organism No. 22, bouillon-agar; read-out: Minimum Inhibitory Concentration
Procedure, shortened: as §1

[6] = tested on: Salmonella paratyphi-A 1015; assay: Antibacterial activity, agar-dilution MIC, organism No. 10; details: Salmonella enterica, PARATYPHI, read-out: Minimum Inhibitory Concentration
Procedure, shortened: as §1

[7] = tested on: Proteus vulgaris OX-19; assay: Antibacterial activity, agar-dilution MIC, organism No. 20; details: Proteus vulgaris, OX19; Organism No. 20, bouillon-agar; read-out: Minimum Inhibitory Concentration
Procedure, shortened: as §1

[8] = tested on: Enterobacter aerogenes ATCC 13048; assay: Antibacterial activity, agar-dilution MIC, organism No. 23; details: Klebsiella aerogenes, ATCC13048; Organism No. 23, bouillon-agar; read-out: Minimum Inhibitory Concentration
Procedure, shortened: as §1

[9] = tested on: Proteus mirabilis IFO 3849; assay: Antibacterial activity, agar-dilution MIC, organism No. 19; details: Proteus mirabilis, IFO3849; Organism No. 19, bouillon-agar; read-out: Minimum Inhibitory Concentration
Procedure, shortened: as §1

[10] = tested on: Escherichia coli NIHJ-JC-2; assay: Antibacterial activity, agar-dilution MIC, organism No. 5; details: Escherichia coli, NIHJJC2; Organism No. 5, bouillon-agar; read-out: Minimum Inhibitory Concentration
Procedure, shortened: as §1

[11] = tested on: Bacillus subtilis ATCC 6633; assay: Antibacterial activity, agar-dilution MIC, organism No. 14; details: Bacillus subtilis, ATCC6633; Organism No. 14, bouillon-agar; read-out: Minimum Inhibitory Concentration
Procedure, shortened: as §1

[12] = tested on: Proteus morganii IFO 3848; assay: Antibacterial activity, agar-dilution MIC, organism No. 18; details: Morganella morganii, IFO3848; Organism No. 18, bouillon-agar; read-out: Minimum Inhibitory Concentration
Procedure, shortened: as §1

[13] = tested on: Pseudomonas aeruginosa PAO 1; assay: Antibacterial activity, agar-dilution MIC, organism No. 17; details: Pseudomonas aeruginosa, PAO1; Organism No. 17, bouillon-agar; read-out: Minimum Inhibitory Concentration
Procedure, shortened: as §1

[14] = tested on: Streptococcus pyogenes Cook; assay: Antibacterial activity, agar-dilution MIC, organism No. 4; details: Streptococcus pyogenes; Organism No. 4, bouillon-agar; read-out: Minimum Inhibitory Concentration
Procedure, shortened: as §1

[15] = tested on: Pseudomonas aeruginosa NCTC 10490; assay: Antibacterial activity, agar-dilution MIC, organism No. 16; details: Pseudomonas aeruginosa, NCTC10490; Organism No. 16, bouillon-agar; read-out: Minimum Inhibitory Concentration
Procedure, shortened: as §1

[16] = tested on: Enterobacter cloacae 963; assay: Antibacterial activity, agar-dilution MIC, organism No. 24; details: Enterobacter cloacae, 963; Organism No. 24, bouillon-agar; read-out: Minimum Inhibitory Concentration
Procedure, shortened: as §1

[17] = tested on: Proteus vulgaris HX-19; assay: Antibacterial activity, agar-dilution MIC, organism No. 21; details: Proteus vulgaris, HX19; Organism No. 21, bouillon-agar; read-out: Minimum Inhibitory Concentration
Procedure, shortened: as §1

[18] = tested on: Streptococcus faecium IFO 3826; assay: Antibacterial activity, agar-dilution MIC, organism No. 27; details: Enterococcus faecium, IFO3826; Organism No. 27, bouillon-agar; read-out: Minimum Inhibitory Concentration
Procedure, shortened: as §1

[19] = tested on: Salmonella shottmuelleri 8006; assay: Antibacterial activity, agar-dilution MIC, organism No. 11; details: Salmonella, 8006; Organism No. 11, bouillon-agar; read-out: Minimum Inhibitory Concentration
Procedure, shortened: as §1

[20] = tested on: Candida albicans IAM 4905; assay: Antifungal activity, agar-dilution MIC, organism No. 29; details: Candida albicans, IAM4905; Organism No. 29, bouillon-agar; read-out: Minimum Inhibitory Concentration
Procedure, shortened: as §1

[21] = tested on: Staphylococcus aureus FDA 209PJc-1; assay: Antibacterial activity, agar-dilution MIC, organism No. 1; details: Staphylococcus aureus, FDA209PJC1; Organism No. 1, bouillon-agar; read-out: Minimum Inhibitory Concentration
Procedure, shortened: as §1

[22] = tested on: Salmonella enteritidis G 14; assay: Antibacterial activity, agar-dilution MIC, organism No. 12; details: Salmonella enterica, ENTERITIDIS; Organism No. 12, bouillon-agar; read-out: Minimum Inhibitory Concentration
Procedure, shortened: as §1

[23] = tested on: Pseudomonas aeruginosa IFO 3445; assay: Antibacterial activity, agar-dilution MIC, organism No. 15; details: Pseudomonas aeruginosa, IFO3445; Organism No. 15, bouillon-agar; read-out: Minimum Inhibitory Concentration
Procedure, shortened: as §1

[24] = tested on: Mycoplasma pneumoniae IID817; assay: Antimycoplasmal activity, MIC by phenol red colour change, organism No. 28; details: Mycoplasma, IID817; Organism No. 28, PPLO broth + 1% glucose, 37° C.; read-out: Minimum Inhibitory Concentration (MIC)
Procedure: Mycoplasma pneumoniae IID817 was used as the test microorganism in a culture medium prepared by adding 1% of glucose to "PPLO broth (manufactured by Difco Co.) liquid culture medium" at 37° C. with phenol red as an indicator, thereby culturing the test microorganism.

[25] = tested on: Salmonella typhi 901; assay: Antibacterial activity, agar-dilution MIC, organism No. 9; details: Salmonella enterica, TYPHI, read-out: Minimum Inhibitory Concentration
Procedure, shortened: as §1

[26] = tested on: Escherichia coli K12 C600 IAM 1264; assay: Antibacterial activity, agar-dilution MIC, organism No. 6; details: Escherichia coli, IAM1264; Organism No. 6, bouillon-agar; read-out: Minimum Inhibitory Concentration
Procedure, shortened: as §1

[27] = tested on: Aspergillus niger IFO 6342; assay: Antifungal activity, agar-dilution MIC, organism No. 30; details: Aspergillus niger, IFO6342; Organism No. 30, bouillon-agar; read-out: Minimum Inhibitory Concentration
Procedure, shortened: as §1

[28] = tested on: Staphylococcus aureus MS 353; assay: Antibacterial activity, agar-dilution MIC, organism No. 3; details: Staphylococcus aureus, MS353; Organism No. 3, bouillon-agar; read-out: Minimum Inhibitory Concentration
Procedure, shortened: as §1

[29] = tested on: Staphylococcus aureus Terajima; assay: Antibacterial activity, agar-dilution MIC, organism No. 2; details: Staphylococcus aureus; Organism No. 2, bouillon-agar; read-out: Minimum Inhibitory Concentration
Procedure, shortened: as §1

[30] = tested on: Klebsiella pneumoniae PCI-602; assay: Antibacterial activity, agar-dilution MIC, organism No. 7; details: Klebsiella pneumoniae, PCI602; Organism No. 7, bouillon-agar; read-out: Minimum Inhibitory Concentration
Procedure, shortened: as §1

For `[C-]#[N+]C12CC3(/C=C/C(=O)Nc4ccc(I)cc4)OC3C1O2` (stereo not drawn) [compound 45], which MIC [1] is on record?
The MIC was > 200 µg/mL.

And the MIC [2]?
The MIC was > 200 µg/mL.

And the MIC [3]?
The MIC was > 200 µg/mL.

And the MIC [4]?
The MIC was < 0.05 µg/mL.

And the MIC [5]?
Its MIC is > 200 µg/mL.

And the MIC [6]?
The MIC was > 200 µg/mL.

What about the MIC [7] of the same molecule?
The MIC was 0.78 µg/mL (≈ 1.98 µM).

What about the MIC [8] of the same molecule?
Its MIC is > 200 µg/mL.

What about the MIC [9] of the same molecule?
Its MIC is > 200 µg/mL.

What about the MIC [10] of the same molecule?
The MIC was > 200 µg/mL.

And the MIC [11]?
The MIC was > 200 µg/mL.

What about the MIC [12] of the same molecule?
The MIC was 100 µg/mL (≈ 254 µM).

What about the MIC [13] of the same molecule?
Its MIC is > 200 µg/mL.

What about the MIC [14] of the same molecule?
The MIC was > 200 µg/mL.

What about the MIC [15] of the same molecule?
Its MIC is > 200 µg/mL.

What about the MIC [16] of the same molecule?
The MIC was > 200 µg/mL.

What about the MIC [17] of the same molecule?
The MIC was 0.78 µg/mL (≈ 1.98 µM).

And the MIC [18]?
The MIC was > 200 µg/mL.

And the MIC [19]?
The MIC was 50 µg/mL (≈ 127 µM).

What about the MIC [20] of the same molecule?
Its MIC is 3.13 µg/mL (≈ 7.94 µM).

What about the MIC [21] of the same molecule?
Its MIC is 12.5 µg/mL (≈ 31.7 µM).

What about the MIC [22] of the same molecule?
The MIC was > 200 µg/mL.

And the MIC [23]?
Its MIC is > 200 µg/mL.

And the MIC [24]?
Its MIC is < 0.2 µg/mL.

What about the MIC [25] of the same molecule?
The MIC was > 200 µg/mL.

What about the MIC [26] of the same molecule?
Its MIC is > 200 µg/mL.

And the MIC [27]?
The MIC was 3.13 µg/mL (≈ 7.94 µM).

And the MIC [28]?
Its MIC is 12.5 µg/mL (≈ 31.7 µM).

And the MIC [29]?
Its MIC is > 200 µg/mL.

And the MIC [30]?
Its MIC is 6.25 µg/mL (≈ 15.9 µM).

With `[C-]#[N+]C12CC3(/C=C/C(=O)OCC(=O)c4ccc([N+](=O)[O-])cc4)OC3C1O2` (stereo not drawn) [compound 8] as the molecule, how does the MIC [1] read?
Its MIC is 25 µg/mL (≈ 70.2 µM).

And the MIC [2]?
The MIC was 100 µg/mL (≈ 281 µM).

What about the MIC [3] of the same molecule?
The MIC was 50 µg/mL (≈ 140 µM).

What about the MIC [4] of the same molecule?
Its MIC is 12.5 µg/mL (≈ 35.1 µM).

What about the MIC [5] of the same molecule?
Its MIC is > 100 µg/mL.

What about the MIC [6] of the same molecule?
The MIC was 25 µg/mL (≈ 70.2 µM).

What about the MIC [7] of the same molecule?
The MIC was 12.5 µg/mL (≈ 35.1 µM).

And the MIC [8]?
Its MIC is > 100 µg/mL.

What about the MIC [9] of the same molecule?
Its MIC is 100 µg/mL (≈ 281 µM).

And the MIC [10]?
Its MIC is 25 µg/mL (≈ 70.2 µM).

What about the MIC [11] of the same molecule?
The MIC was 100 µg/mL (≈ 281 µM).

What about the MIC [12] of the same molecule?
Its MIC is 25 µg/mL (≈ 70.2 µM).

What about the MIC [13] of the same molecule?
Its MIC is > 100 µg/mL.

What about the MIC [14] of the same molecule?
Its MIC is 50 µg/mL (≈ 140 µM).

And the MIC [15]?
The MIC was > 100 µg/mL.

What about the MIC [16] of the same molecule?
The MIC was > 100 µg/mL.

And the MIC [17]?
The MIC was 12.5 µg/mL (≈ 35.1 µM).

And the MIC [18]?
Its MIC is 25 µg/mL (≈ 70.2 µM).

And the MIC [19]?
The MIC was 25 µg/mL (≈ 70.2 µM).

What about the MIC [20] of the same molecule?
Its MIC is 25 µg/mL (≈ 70.2 µM).

And the MIC [21]?
The MIC was 12.5 µg/mL (≈ 35.1 µM).

And the MIC [22]?
The MIC was 12.5 µg/mL (≈ 35.1 µM).

And the MIC [23]?
The MIC was > 100 µg/mL.

And the MIC [24]?
Its MIC is 1.56 µg/mL.

And the MIC [25]?
Its MIC is 12.5 µg/mL (≈ 35.1 µM).

What about the MIC [26] of the same molecule?
The MIC was 25 µg/mL (≈ 70.2 µM).

What about the MIC [27] of the same molecule?
The MIC was 100 µg/mL (≈ 281 µM).

And the MIC [28]?
Its MIC is 12.5 µg/mL (≈ 35.1 µM).

And the MIC [29]?
Its MIC is 25 µg/mL (≈ 70.2 µM).

And the MIC [30]?
The MIC was 50 µg/mL (≈ 140 µM).
